Results as given in patent US12097190B2, “Therapeutic use of levorotatory β-lactams in hematopoiesis, immuno-oncology therapy, and regulation of lipoprotein and apolipoprotein levels” (Alpha-1 Biologics, LLC, priority 2017, dated 2024).

Key:
[1] = tested on: HIV non-permissive (minus) clone 17; test: Adherence assay on coverslips, U937 minus clone 17; type: cell-based, human
Procedure: (§1) To coverslips prepared with chemoattractants as described above, 10^6 cells in 90 μl HBSS were mixed to uniformity, and incubated for 30 min in humidified 5% CO2 at 37° C. without dehydration. To detect interacting effects of stimulants, cells were delivered in an 80 μl volume to coverslips previously prepared with 10 μl of one stimulant, mixed to uniformity, and incubated for 15 min at 37° C. Subsequently, an additional stimulant was delivered in a 10 μl volume to each coverslip, mixed with pre-incubated cells to uniformity, and incubated for 30-60 min at 37° C. […] Slides were examined by epi-illumination UV microscopy on a Zeiss Axioskop Means and standard deviations were determined by counting adherent cells in at least three fields/coverslip.
(§2) Means and standard deviations represent the difference between stimulated and unstimulated adherence. […] Adherence was optimized for each chemoattractant and adherence induced by each chemoattractant was enumerated in more than three separate experiments.

[2] = tested on: HIV permissive (plus) clone 10; test: Adherence assay on coverslips, U937 plus clone 10; type: cell-based, human
Procedure: as §1, §2

With Ser-Phe-Leu-Leu-Arg-Asn [SFLLRN] the stimulation of adherence [1] was “Neither subclone was influenced” and the stimulation of adherence [2] was “Neither subclone was influenced”.
